Measured values taken from US11780821B2, “Inhibitors of fibroblast activation protein” (Praxis Biotech LLC, priority 2017, dated 2023).
Like-named read-outs stand apart in the source and are kept apart here.

How the values were obtained:
Assay type in all cases: biochemical
[1] = biological target: T1, recombinant human FAPα (rhFAPα) (Homo sapiens, UniProt Q12884); assay: FAPα enzymatic exopeptidase (dipeptidase) activity assay; settings: for inhibition at 1 µM: read-out: rhFAPα (% exo inh @ 1 μM); for IC50: exopeptidase, read-out: rhFAPα (exo IC50)
T1 construct: purchased R&S system (so in the source)
T1 sequence (Q12884 1-760): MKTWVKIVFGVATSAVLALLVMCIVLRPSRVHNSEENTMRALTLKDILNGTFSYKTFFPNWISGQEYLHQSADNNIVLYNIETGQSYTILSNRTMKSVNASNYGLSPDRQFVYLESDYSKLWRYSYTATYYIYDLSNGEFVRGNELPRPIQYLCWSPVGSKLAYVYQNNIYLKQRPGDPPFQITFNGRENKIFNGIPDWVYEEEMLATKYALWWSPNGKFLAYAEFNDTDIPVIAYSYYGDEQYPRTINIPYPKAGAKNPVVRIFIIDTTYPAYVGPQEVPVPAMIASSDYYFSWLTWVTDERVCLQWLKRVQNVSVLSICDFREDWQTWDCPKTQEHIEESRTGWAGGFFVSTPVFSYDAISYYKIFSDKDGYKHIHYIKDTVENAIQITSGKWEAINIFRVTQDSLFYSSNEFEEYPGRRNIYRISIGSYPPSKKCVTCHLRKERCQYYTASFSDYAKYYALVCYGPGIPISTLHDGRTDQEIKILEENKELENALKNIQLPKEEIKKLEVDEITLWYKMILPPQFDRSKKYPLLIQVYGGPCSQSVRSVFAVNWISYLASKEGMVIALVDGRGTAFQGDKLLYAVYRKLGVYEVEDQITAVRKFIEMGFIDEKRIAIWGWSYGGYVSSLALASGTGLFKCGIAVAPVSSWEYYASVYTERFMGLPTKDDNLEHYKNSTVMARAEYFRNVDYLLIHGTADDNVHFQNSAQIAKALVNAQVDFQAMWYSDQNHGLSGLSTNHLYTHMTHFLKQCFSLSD

[2] = biological target: T2, recombinant human DPP9 (rhDPP9) (Homo sapiens, UniProt Q86TI2); assay: DPP9 enzymatic activity assay; settings: H-Gly-Pro-AMC substrate
T2 construct: purchased R&S system (so in the source)
Experimental: (§1) 7-Amino-4-Methylcoumarin (AMC) release was detected by measuring fluorescence at Ex/Em 380/460 nm using a Multifunction Microplate Reader (Synergy 4, Biotek). All measurements were carried out in triplicate.

[3] = biological target: T3, recombinant human PREP (rhPREP) (Homo sapiens, UniProt P48147); assay: PREP enzymatic activity assay; settings: Z-Gly-Pro-AMC substrate
T3 sequence (P48147 1-710): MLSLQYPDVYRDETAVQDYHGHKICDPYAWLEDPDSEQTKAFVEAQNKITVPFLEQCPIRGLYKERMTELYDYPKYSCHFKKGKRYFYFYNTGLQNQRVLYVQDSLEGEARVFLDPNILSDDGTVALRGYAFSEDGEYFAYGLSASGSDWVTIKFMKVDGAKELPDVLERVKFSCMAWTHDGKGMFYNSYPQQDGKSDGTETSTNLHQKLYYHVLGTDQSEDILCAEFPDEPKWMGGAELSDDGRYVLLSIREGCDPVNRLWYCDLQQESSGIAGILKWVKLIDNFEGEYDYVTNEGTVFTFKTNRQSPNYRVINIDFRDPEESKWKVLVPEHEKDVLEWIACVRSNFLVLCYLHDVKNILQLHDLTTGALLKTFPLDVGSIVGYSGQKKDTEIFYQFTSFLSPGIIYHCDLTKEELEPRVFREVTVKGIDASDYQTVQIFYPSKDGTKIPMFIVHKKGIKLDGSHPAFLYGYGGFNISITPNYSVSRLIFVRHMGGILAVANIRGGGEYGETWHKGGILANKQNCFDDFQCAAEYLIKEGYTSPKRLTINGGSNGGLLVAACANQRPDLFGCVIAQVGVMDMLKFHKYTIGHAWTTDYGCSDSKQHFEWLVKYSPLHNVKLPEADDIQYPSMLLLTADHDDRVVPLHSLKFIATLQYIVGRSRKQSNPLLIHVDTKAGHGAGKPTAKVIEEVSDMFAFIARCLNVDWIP
Experimental: as §1

[4] = biological target: T4, recombinant human DPPIV (rhDPPIV) (Homo sapiens, UniProt P27487); assay: DPPIV enzymatic activity assay; settings: H-Gly-Pro-pNA substrate
T4 construct: purchased R&S system (so in the source)

[5] = 1 μM test compound, Z-Gly-Pro-AMC substrate

T2 sequence (Q86TI2 whole entry): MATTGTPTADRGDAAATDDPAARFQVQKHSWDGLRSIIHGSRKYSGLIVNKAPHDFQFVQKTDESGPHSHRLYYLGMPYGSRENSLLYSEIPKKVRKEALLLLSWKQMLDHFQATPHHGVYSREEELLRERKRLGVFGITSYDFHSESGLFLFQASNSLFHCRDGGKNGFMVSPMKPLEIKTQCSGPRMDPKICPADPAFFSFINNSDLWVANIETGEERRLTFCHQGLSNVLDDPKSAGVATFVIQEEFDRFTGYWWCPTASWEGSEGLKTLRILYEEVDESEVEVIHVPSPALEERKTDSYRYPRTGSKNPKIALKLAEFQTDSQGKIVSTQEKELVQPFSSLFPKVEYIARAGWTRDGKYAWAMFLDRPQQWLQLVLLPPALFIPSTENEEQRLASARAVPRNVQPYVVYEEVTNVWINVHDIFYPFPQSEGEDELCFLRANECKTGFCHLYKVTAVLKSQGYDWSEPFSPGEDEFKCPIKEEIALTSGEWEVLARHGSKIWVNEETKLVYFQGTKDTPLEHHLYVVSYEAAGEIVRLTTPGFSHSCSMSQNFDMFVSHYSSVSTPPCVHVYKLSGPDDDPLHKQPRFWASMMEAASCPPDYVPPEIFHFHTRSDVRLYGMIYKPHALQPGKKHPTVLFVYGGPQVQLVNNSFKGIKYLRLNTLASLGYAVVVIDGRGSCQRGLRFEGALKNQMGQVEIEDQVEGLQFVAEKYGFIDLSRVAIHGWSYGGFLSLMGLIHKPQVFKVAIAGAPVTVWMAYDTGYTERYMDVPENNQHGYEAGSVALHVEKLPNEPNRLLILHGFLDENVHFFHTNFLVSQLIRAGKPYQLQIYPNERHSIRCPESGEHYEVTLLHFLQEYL
T4 sequence (P27487 whole entry): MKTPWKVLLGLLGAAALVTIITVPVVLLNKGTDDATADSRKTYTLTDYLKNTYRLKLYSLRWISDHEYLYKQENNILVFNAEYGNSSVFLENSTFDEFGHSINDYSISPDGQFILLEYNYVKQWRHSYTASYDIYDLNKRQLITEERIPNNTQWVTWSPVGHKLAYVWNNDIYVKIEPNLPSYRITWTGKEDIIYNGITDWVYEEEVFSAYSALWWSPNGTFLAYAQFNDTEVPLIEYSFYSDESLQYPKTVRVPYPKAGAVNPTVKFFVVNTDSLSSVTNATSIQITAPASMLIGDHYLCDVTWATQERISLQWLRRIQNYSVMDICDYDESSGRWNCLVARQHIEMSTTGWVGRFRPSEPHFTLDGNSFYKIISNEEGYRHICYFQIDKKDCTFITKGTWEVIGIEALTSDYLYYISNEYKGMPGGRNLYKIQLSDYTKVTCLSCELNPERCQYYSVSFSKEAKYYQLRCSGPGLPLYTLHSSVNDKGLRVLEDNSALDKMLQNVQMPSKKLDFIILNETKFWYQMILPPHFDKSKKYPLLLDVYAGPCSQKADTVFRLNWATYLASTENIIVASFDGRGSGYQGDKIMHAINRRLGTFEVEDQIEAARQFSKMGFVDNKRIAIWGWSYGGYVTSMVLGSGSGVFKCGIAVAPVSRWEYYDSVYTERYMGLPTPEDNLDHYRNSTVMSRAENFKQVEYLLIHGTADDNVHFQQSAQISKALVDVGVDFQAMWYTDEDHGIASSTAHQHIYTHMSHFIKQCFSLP

| SMILES | inhibition at 1 µM [1, 5] | IC50 [2] | IC50 [3] | IC50 ([1]; Table 2, Z-Gly-Pro-AMC) | IC50 ([1]; Table 3) | IC50 [4] | inhibition at 1 µM [1] |
| --- | --- | --- | --- | --- | --- | --- | --- |
| CC(NC(=O)c1c[nH]c(=O)c2ccccc12)C(=O)N1CC(F)(F)C[C@H]1C#N (stereo partly drawn) [Compound 25, N-(1-((S)-2-cyano-4,4-difluoropyrrolidin-1-yl)-1-oxopropan-2-yl)-1-oxo-1,2-dihydroisoquinoline-4-carboxamide] | – | – | – | – | – | – | < 25% |
| N#C[C@@H]1CC(F)(F)CN1C(=O)CNC(=O)c1c[nH]c(=O)cc1-c1ccccc1 [Compound 29, (S)—N-(2-(2-cyano-4,4-difluoropyrrolidin-1-yl)-2-oxoethyl)-6-oxo-4-phenyl-1,6-dihydropyridine-3-carboxamide] | > 50% | > 10000 nM | > 10000 nM | < 1000 nM | < 1000 nM | 1000 to 10000 nM | – |
| N#C[C@@H]1CC(F)(F)CN1C(=O)CNC(=O)c1ccc2[nH]ncc2c1 [Compound 83] | 25 to 50% | – | – | – | – | – | – |
| COc1cnccc1C(=O)NCC(=O)N1CC(F)(F)C[C@H]1C#N [Compound 36] | > 50% | – | – | < 1000 nM | < 1000 nM | > 10000 nM | – |
| N#C[C@@H]1CC(F)(F)CN1C(=O)CNC(=O)c1coc(=O)c2ccccc12 [Compound 22, (S)—N-(2-(2-cyano-4,4-difluoropyrrolidin-1-yl)-2-oxoethyl)-1-oxo-1H-isochromene-4-carboxamide] | > 50% | – | 1000 to 10000 nM | < 1000 nM | < 1000 nM | > 10000 nM | – |
| N#C[C@@H]1CC(F)(F)CN1C(=O)CCCNC(=O)c1c[nH]c(=O)c2ccccc12 [Compound 82, (S)—N-(4-(2-cyano-4,4-difluoropyrrolidin-1-yl)-4-oxobutyl)-1-oxo-1,2-dihydroisoquinoline-4-carboxamide] | < 25% | – | – | – | – | – | – |
| N#C[C@@H]1CC(F)(F)CN1C(=O)C1(NC(=O)c2c[nH]c(=O)c3ccccc23)CC1 [Compound 23, (S)—N-(1-(2-cyano-4,4-difluoropyrrolidine-1-carbonyl)cyclopropyl)-1-oxo-1,2-dihydroisoquinoline-4-carboxamide] | < 25% | – | – | – | – | – | – |
| Cn1nc(C(=O)NCC(=O)N2CC(F)(F)C[C@H]2C#N)c2ccccc2c1=O [Compound 81] | < 25% | – | – | – | – | – | – |
| N#Cc1ccc(C(=O)NCC(=O)N2CC(F)(F)C[C@H]2C#N)cc1 [Compound 17, (S)-4-cyano-N-(2-(2-cyano-4,4-difluoropyrrolidin-1-yl)-2-oxoethyl)benzamide] | 25 to 50% | – | – | – | – | – | – |
| CCN1C(=O)CC[C@@H](C(=O)NCC(=O)N2CC(F)(F)C[C@H]2C#N)[C@@H]1c1ccccc1 [Compound 20, (2R,3R)—N-(2-((S)-2-cyano-4,4-difluoropyrrolidin-1-yl)-2-oxoethyl)-1-ethyl-6-oxo-2-phenylpiperidine-3-carboxamide] | 25 to 50% | – | – | – | – | – | – |
| N#C[C@@H]1CC(F)(F)CN1C(=O)CNC(=O)c1cc2ccncc2o1 [Compound 84] | 25 to 50% | – | – | – | – | – | – |
| N#C[C@@H]1CC(F)(F)CN1C(=O)CNC(=O)c1ccc2nccc(-c3ccccc3)c2c1 [Compound 19, (S)—N-(2-(2-cyano-4,4-difluoropyrrolidin-1-yl)-2-oxoethyl)-4-phenylquinoline-6-carboxamide] | > 50% | – | > 10000 nM | < 1000 nM | < 1000 nM | > 10000 nM | – |
| N#C[C@H]1CC(F)(F)CN1C(=O)CNC(=O)c1ccncc1C1CC1 [compound 37] | – | – | – | – | – | – | > 50% |
| N#Cc1ccc(C(=O)NCC(=O)N2CC(F)(F)C[C@H]2C#N)cc1F [Compound 15, (S)-4-cyano-N-(2-(2-cyano-4,4-difluoropyrrolidin-1-yl)-2-oxoethyl)-3-fluorobenzamide] | 25 to 50% | – | – | – | – | – | – |
| N#Cc1ccc(C(=O)NCC(=O)N2CC(F)(F)C[C@H]2C#N)c(C(F)(F)F)c1 [Compound 18, (S)-4-cyano-N-(2-(2-cyano-4,4-difluoropyrrolidin-1-yl)-2-oxoethyl)-2-(trifluoromethyl)benzamide] | 25 to 50% | – | – | – | – | – | – |
| N#C[C@@H]1CC(F)(F)CN1C(=O)CNC(=O)C1=NNC(=O)C2C=CC=CC12 (some centres unmarked) [Compound 80] | > 50% | – | – | < 1000 nM | < 1000 nM | > 10000 nM | – |

Second part, led by results:

| inhibition at 1 µM [1, 5] | IC50 [2] | IC50 [3] | IC50 ([1]; Table 2, Z-Gly-Pro-AMC) | IC50 ([1]; Table 3) | IC50 [4] | SMILES | inhibition at 1 µM [1] |
| --- | --- | --- | --- | --- | --- | --- | --- |
| < 25% | – | – | – | – | – | N#C[C@@H]1CC(F)(F)CN1C(=O)C1CC(NC(=O)c2c[nH]c(=O)c3ccccc23)C1 (some centres unmarked) [Compound 101] | – |
| 25 to 50% | – | – | – | – | – | COc1ccc(C(=O)NCC(=O)N2CC(F)(F)C[C@H]2C#N)c(-c2ccccc2)n1 [Compound 86, (S)—N-(2-(2-cyano-4,4-difluoropyrrolidin-1-yl)-2-oxoethyl)-6-methoxy-2-phenylnicotinamide] | – |
| > 50% | > 10000 nM | > 10000 nM | < 1000 nM | < 1000 nM | > 10000 nM | N#C[C@@H]1CC(F)(F)CN1C(=O)CNC(=O)c1ccncc1Oc1ccccc1 [Compound 97, (S)—N-(2-(2-cyano-4,4-difluoropyrrolidin-1-yl)-2-oxoethyl)-3-phenoxyisonicotinamide] | – |
| > 50% | > 10000 nM | > 10000 nM | < 1000 nM | < 1000 nM | > 10000 nM | N#C[C@@H]1CC(F)(F)CN1C(=O)CNC(=O)c1ccncc1Nc1ccc(F)cc1 [Compound 114, (S)—N-(2-(2-cyano-4,4-difluoropyrrolidin-1-yl)-2-oxoethyl)-3-((4-fluorophenyl)amino)isonicotinamide 2,2,2-trifluoroacetate] | – |
| < 25% | – | – | – | – | – | N#C[C@@H]1CC(F)(F)CN1C(=O)CNC(=O)c1ccc(=O)[nH]c1-c1ccccc1 [compound 30] | – |
| > 50% | > 10000 nM | 1000 to 10000 nM | < 1000 nM | < 1000 nM | > 10000 nM | N#C[C@@H]1CC(F)(F)CN1C(=O)CNC(=O)c1ccncc1Nc1cccnc1 [Compound 117, (S)—N-(2-(2-cyano-4,4-difluoropyrrolidin-1-yl)-2-oxoethyl)-3-(pyridin-3-ylamino)isonicotinamide] | – |
| > 50% | > 10000 nM | > 10000 nM | < 1000 nM | < 1000 nM | > 10000 nM | N#C[C@@H]1CC(F)(F)CN1C(=O)CNC(=O)c1ccncc1Nc1ccnc2ccccc12 [Compound 119, (S)—N-(2-(2-cyano-4,4-difluoropyrrolidin-1-yl)-2-oxoethyl)-3-(quinolin-4-ylamino)isonicotinamide] | – |
| > 50% | 1000 to 10000 nM | – | < 1000 nM | < 1000 nM | – | N#C[C@@H]1CC(F)(F)CN1C(=O)CNC(=O)c1ccncc1CCc1ccccc1 [Compound 125, (S)—N-(2-(2-cyano-4,4-difluoropyrrolidin-1-yl)-2-oxoethyl)-3-phenethylisonicotinamide] | – |
| > 50% | – | – | – | – | – | N#C[C@@H]1CC(F)(F)CN1C(=O)CNC(=O)c1ccn2nccc2c1 [Compound 85] | – |
| > 50% | 1000 to 10000 nM | – | < 1000 nM | < 1000 nM | – | N#C[C@@H]1CC(F)(F)CN1C(=O)CNC(=O)c1ccncc1/C=C/c1ccccc1 [Compound 124, (S,E)-N-(2-(2-cyano-4,4-difluoropyrrolidin-1-yl)-2-oxoethyl)-3-styrylisonicotinamide] | – |
